Assay results reported in paper PMC6979384, “Characterization of the plant homeodomain (PHD) reader family for their histone tail interactions” (Epigenetics & Chromatin, 2020).
Where no end group is shown, it is not given here. [ ]: non-standard residue; d: D form. Arg(Me2a) = CN(C)C(=N)NCCC[C@H](N)C(=O)O

Legend:
Test in all cases: Histone peptide microarray
Type in all cases: binding, human
KDM5B (3) = conditions: KDM5B (3), GST-tagged; arrays performed twice, n of 4
From the text: (§1) To more comprehensively define the histone interactions of the 31 PHD readers identified from the domain microarray analyses, we probed each on an alternate microarray platform containing a library of 293 synthetic histone peptides with single or combinatorial PTMs (Additional file 2: Figure S4 and Additional file 3: Table S2).
(§2) The 31 GST-tagged PHD readers identified in the PHD finger domain array were expressed and purified as previously. Histone peptide arrays and peptide pulldown assays were conducted as recently described (specifically, the optimized protocol from Petell et al. for the former).
(§3) Supplementary file 13072_2020_328_MOESM3_ESM.xlsx: Additional file 3: Table S2. […] Excel Tab Peptide List is a compiled list of the entire 293 histone peptide library with amino acid sequence ranges. […] Each number corresponds to the peptide number designated in Peptide List. Excel Tab Average Signals is a compiled set of binding data: chromatin reader at 0.5 μM vs. entire 293 peptide library. Data is presented as the average and standard deviation of 4 replicates. The average signals are colored to indicate signal intensity with green being strong and white being weak/low. […] Key: red= stronger relative binding; blue = weaker relative binding. Excel Tab Array info summary is a table summarizing the domains, sequence coverage, array signal range, and noise for each of the GST-tagged readers assayed on the peptide microarrays.

ING5 = conditions: ING5, GST-tagged; arrays performed twice, n of 4
From the text: as §1, §2, §3

AIRE (PP) = conditions: AIRE (PP), GST-tagged; arrays performed twice, n of 4
From the text: as §1, §2, §3

KDM7A = conditions: KDM7A, GST-tagged; arrays performed twice, n of 4
From the text: as §1, §2, §3

PHF8 = conditions: PHF8, GST-tagged; arrays performed twice, n of 4
From the text: as §1, §2, §3

MORC3 (CW) = conditions: MORC3 (CW), GST-tagged; arrays performed twice, n of 4
From the text: as §1, §2, §3

KDM5A (1) = conditions: KDM5A (1), GST-tagged; arrays performed twice, n of 4
From the text: as §1, §2, §3

TAF3 = conditions: TAF3, GST-tagged; arrays performed twice, n of 4
From the text: as §1, §2, §3

PHF13 = conditions: PHF13, GST-tagged; arrays performed twice, n of 4
From the text: as §1, §2, §3

MLL5 = conditions: MLL5, GST-tagged; arrays performed twice, n of 4
From the text: as §1, §2, §3

ING3 = conditions: ING3, GST-tagged; arrays performed twice, n of 4
From the text: as §1, §2, §3

CHD5 (PCC) = conditions: CHD5 (PCC), GST-tagged; arrays performed twice, n of 4
From the text: as §1, §2, §3

ING2 = conditions: ING2, GST-tagged; arrays performed twice, n of 4
From the text: as §1, §2, §3

DPF2 (PPC2W2) = conditions: DPF2 (PPC2W2), GST-tagged; arrays performed twice, n of 4
From the text: as §1, §2, §3

BAZ2B = conditions: BAZ2B, GST-tagged; arrays performed twice, n of 4
From the text: as §1, §2, §3

PHRF1 (RP) = conditions: PHRF1 (RP), GST-tagged; arrays performed twice, n of 4
From the text: as §1, §2, §3

CHD5 (PPCC) = conditions: CHD5 (PPCC), GST-tagged; arrays performed twice, n of 4
From the text: as §1, §2, §3

KDM5B (1) = conditions: KDM5B (1), GST-tagged; arrays performed twice, n of 4
From the text: as §1, §2, §3

PHF21A = conditions: PHF21A, GST-tagged; arrays performed twice, n of 4
From the text: as §1, §2, §3

ING1 = conditions: ING1, GST-tagged; arrays performed twice, n of 4
From the text: as §1, §2, §3

KDM4C (TTP) = conditions: KDM4C (TTP), GST-tagged; arrays performed twice, n of 4
From the text: as §1, §2, §3

PHF23 = conditions: PHF23, GST-tagged; arrays performed twice, n of 4
From the text: as §1, §2, §3

CHD4 (PPCC) = conditions: CHD4 (PPCC), GST-tagged; arrays performed twice, n of 4
From the text: as §1, §2, §3

DIDO1 = conditions: DIDO1, GST-tagged; arrays performed twice, n of 4
From the text: as §1, §2, §3

RAG2 = conditions: RAG2, GST-tagged; arrays performed twice, n of 4
From the text: as §1, §2, §3

SP140L = conditions: SP140L, GST-tagged; arrays performed twice, n of 4
From the text: as §1, §2, §3

TRIM66 (PB) = conditions: TRIM66 (PB), GST-tagged; arrays performed twice, n of 4
From the text: as §1, §2, §3

KDM5A (3) = conditions: KDM5A (3), GST-tagged; arrays performed twice, n of 4
From the text: as §1, §2, §3

ING4 = conditions: ING4, GST-tagged; arrays performed twice, n of 4
From the text: as §1, §2, §3

BPTF (PB) = conditions: BPTF (PB), GST-tagged; arrays performed twice, n of 4
From the text: as §1, §2, §3

PHF2 = conditions: PHF2, GST-tagged; arrays performed twice, n of 4
From the text: as §1, §2, §3

Substance	Array Heatmap value (peptide array binding signal) (KDM5B (3))	Array Heatmap value (peptide array binding signal) (ING5)	Array Heatmap value (peptide array binding signal) (AIRE (PP))	Array Heatmap value (peptide array binding signal) (KDM7A)	Array Heatmap value (peptide array binding signal) (PHF8)	Array Heatmap value (peptide array binding signal) (MORC3 (CW))	Array Heatmap value (peptide array binding signal) (KDM5A (1))	Array Heatmap value (peptide array binding signal) (TAF3)	Array Heatmap value (peptide array binding signal) (PHF13)	Array Heatmap value (peptide array binding signal) (MLL5)	Array Heatmap value (peptide array binding signal) (ING3)	Array Heatmap value (peptide array binding signal) (CHD5 (PCC))	Array Heatmap value (peptide array binding signal) (ING2)	Array Heatmap value (peptide array binding signal) (DPF2 (PPC2W2))	Array Heatmap value (peptide array binding signal) (BAZ2B)	Array Heatmap value (peptide array binding signal) (PHRF1 (RP))	Array Heatmap value (peptide array binding signal) (CHD5 (PPCC))	Array Heatmap value (peptide array binding signal) (KDM5B (1))	Array Heatmap value (peptide array binding signal) (PHF21A)	Array Heatmap value (peptide array binding signal) (ING1)	also measured
H2A.Z K4ac + K8ac + K12ac (1-19) (N-ac): H2AZ 1-19 (Ac-AGGKAGKDSGKAKTKAVSR; not fully specified (residue 4); UniProt P0C0S5 2-20, looked up, fragment)	0.5225	0.4262	0.5817	0.3929	0.4227	0.4285	0.5365	0.3233	0.6948	0.5838	0.5369	0.8638	0.6161	0.7519	0.5346	0.5134	0.6452	0.6584	0.5429	0.5984	Array Heatmap value (peptide array binding signal) (KDM4C (TTP)): 0.565; Array Heatmap value (peptide array binding signal) (PHF23): 0.5933; Array Heatmap value (peptide array binding signal) (CHD4 (PPCC)): 0.6197; Array Heatmap value (peptide array binding signal) (DIDO1): 0.7683; Array Heatmap value (peptide array binding signal) (RAG2): 0.271; Array Heatmap value (peptide array binding signal) (SP140L): 0.395; Array Heatmap value (peptide array binding signal) (TRIM66 (PB)): 0.6947; Array Heatmap value (peptide array binding signal) (KDM5A (3)): 0.4842; Array Heatmap value (peptide array binding signal) (ING4): 0.5392; Array Heatmap value (peptide array binding signal) (BPTF (PB)): 0.4048; Array Heatmap value (peptide array binding signal) (PHF2): 0.5309
H2AR3me2a + K5ac: H2A 1-17 (SG[Arg(Me2a)]GK(Ac)QGGKARAKAKTR; UniProt P0C0S8 2-18, looked up, fragment)	0.4618	0.3401	0.4061	0.3242	0.3477	0.3531	0.4472	0.2475	0.6011	0.5527	0.4528	0.7634	0.5954	0.6169	0.4585	0.4082	0.5209	0.6265	0.4417	0.502	Array Heatmap value (peptide array binding signal) (KDM4C (TTP)): 0.4418; Array Heatmap value (peptide array binding signal) (PHF23): 0.5294; Array Heatmap value (peptide array binding signal) (CHD4 (PPCC)): 0.5411; Array Heatmap value (peptide array binding signal) (DIDO1): 0.6572; Array Heatmap value (peptide array binding signal) (RAG2): 0.2374; Array Heatmap value (peptide array binding signal) (SP140L): 0.3352; Array Heatmap value (peptide array binding signal) (TRIM66 (PB)): 0.6358; Array Heatmap value (peptide array binding signal) (KDM5A (3)): 0.4055; Array Heatmap value (peptide array binding signal) (ING4): 0.4409; Array Heatmap value (peptide array binding signal) (BPTF (PB)): 0.3416; Array Heatmap value (peptide array binding signal) (PHF2): 0.5234
